Reference: patent US10251408B2, “Catechin function enhancement method” (KYUSHU UNIVERSITY, NATIONAL UNIVERSITY CORPORATION, priority 2014, dated 2019)

What was measured:
[1] = test system: Human multiple myeloma cell line U266; experiment: Anticancer effect, viable cells by trypan blue assay (24-well plates, FIG. 14-19); assay type: cell-based; conditions: 5 μM each, 96 hours
Experimental: (§1) Human multiple myeloma cell line U266 was subcultured and maintained in RPMI 1640 medium supplemented with 10% fetal bovine serum (FCS) under conditions of 37° C. and water vapor-saturated 5% CO2. The cells were maintained in the logarithmic growth phase. The RPMI 1640 medium used for culture was prepared as follows: per liter of ultrapure water, RPMI 1640 medium (10.4 g), HEPES (2.38 g), injectable penicillin G potassium (100,000 units), streptomycin sulfate injectable (100 mg) and NaHCO3 (2.0 g) were suspended and then filter-sterilized. Then, the RPMI 1640 medium was supplemented with FCS and used for cell culture. Per liter of ultrapure water, NaCl (8.0 g), KCl (0.2 g), Na2HPO4 (1.15 g) and KH2PO4 (0.2 g) were dissolved to prepare PBS, which was then sterilized in an autoclave.
Eriodictyol and structural analogs thereof, i.e., naringenin and hesperetin, as well as glycosides thereof, i.e., eriocitrin, naringin and hesperidin were each adjusted to 5 mM with 100% dimethyl sulfoxide (DMSO) and stored at −30° C. EGCG and (−)-gallocatechin gallate (GCG) were each adjusted to 5 mM with ultrapure water and stored at −30° C. EGCG 3″Me was adjusted to 5 mM with 10% DMSO dH2O and stored at −30° C.
U266 adjusted to 5×10^4 cells/mL in RPMI 1640 containing 1% FCS, SOD (5 U/mL) and catalase (200 U/mL) was seeded in 24-well plates and cultured for 96 hours in the presence of EGCG and analogs thereof or eriodictyol and analogs thereof added at a final concentration of 5 μM each. After culture, viable cells were counted by trypan blue assay.
For statistical processing of the experimental results, Student's test was used and P<0.05 was considered statistically significant in comparison with control data in the vehicle group.

[2] = test system: Human multiple myeloma cell line U266; experiment: Cancer cell apoptosis induction, Annexin V/PI flow cytometry; assay type: cell-based; conditions: EGCG and eriodictyol 5 μM each, 96 hours, FIG. 1
Experimental: as §1, with “filter-sterilized.” for “filter-sterilized. Then, the RPMI 1640 medium was supplemented with FCS and used for cell culture. Per liter of ultrapure water, NaCl (8.0 g), KCl (0.2 g), Na2HPO4 (1.15 g) and KH2PO4 (0.2 g) were dissolved to prepare PBS, which was then sterilized in an autoclave.”
Then, the RPMI 1640 medium was supplemented with FCS and used for cell culture. To examine the apoptosis induction effect on human multiple myeloma cell line U266 produced upon combination of EGCG and eriodictyol, double staining was performed with Annexin V and PI. For use as a propidium iodide (PI) stain solution, PI (Sigma) was suspended in PBS at a concentration of 50 μg/mL. […]
Then, the fully suspended cell culture was centrifuged at 300×g for 5 minutes to remove the supernatant, and then suspended with the Annexin V binding buffer, counted with a hemacytometer, centrifuged again at 300×g for 5 minutes and then suspended with the Annexin V binding buffer. […] After compensation, the Annexin V Alexa Fluor 488 conjugate was measured at FL 1 and cells determined to be positive were regarded as apoptotic cells. […]

MCP-1 = experiment: Fat tissue MCP-1 mRNA by real-time PCR in HF/HS diet-fed mice; assay type: in vivo, mouse; conditions: C57BL/6J mice; Yabukita 0.2% and/or eriodictyol 0.45 g/kg diet; 8 weeks; FIG. 5
From the text: Male C57BL/6J mice at 12 weeks of age were preliminarily kept for 1 week and then divided into 5 groups such that the average body weight was equal in all groups, i.e., a control (AIN-93G-based diet) group, a HF/HS (high-fat high-sucrose diet) group, a Yabukita (0.2%) (HF/HS+Yabukita) group, an eriodictyol (HF/HS+eriodictyol) group, and a Yabukita+eriodictyol (HF/HS+Yabukita+eriodictyol) group. A feed supplemented with Yabukita (0.2%) and eriodictyol (0.45 g/kg diet) was given to the mice. The feed was given in an amount of 4 g/day and the mice were kept for 8 weeks under ad libitum drinking conditions. After being fasted for 16 hours, the mice were sacrificed by abdominal aortic puncture under isoflurane anesthesia. The collected blood samples were allowed to stand at 37° C. for 2 hours to cause coagulation and then centrifuged at 4° C. at 2000×g for 15 minutes to collect serum fractions. The values of serum total cholesterol and LDL were measured. […] Yabukita and eriodictyol were examined for their effect on obesity in high-fat high-sucrose diet-fed obese model mice. […] After being measured for their body weight, the mice were fasted for 16 hours and then sacrificed by abdominal aortic puncture under isoflurane anesthesia. […] The values of serum total cholesterol and LDL were measured.

O=C1C[C@@H](c2ccc(O)c(O)c2)Oc2cc(O)cc(O)c21 [eriodictyol] was tested, and the “enhancement of the anticancer effect (viable cells) of EGCG” value ([1]; combined with EGCG) was “remarkably enhance the anticancer effect”, the “enhancement of the anticancer effect (viable cells) of EGCG 3″Me” value ([1]; combined with EGCG 3″Me) was “remarkably enhance the anticancer effect” and the “enhancement of the anticancer effect (viable cells) of GCG” value ([1]; combined with GCG (gallocatechin gallate)) was “remarkably enhance the anticancer effect”. The “effect on the cancer cell apoptosis induction effect of EGCG (Annexin V positive cells)” value [2] was “enhance the apoptosis induction effect of EGCG” and the “high-fat high-sucrose diet-induced increase in fat tissue MCP-1 expression level (mRNA)” value (MCP-1) was “no effect”.
